This experiment concerns the target T1, human and rat GPR-14 (UniProt Q9UKP6).
T1 sequence (Q9UKP6 1-389): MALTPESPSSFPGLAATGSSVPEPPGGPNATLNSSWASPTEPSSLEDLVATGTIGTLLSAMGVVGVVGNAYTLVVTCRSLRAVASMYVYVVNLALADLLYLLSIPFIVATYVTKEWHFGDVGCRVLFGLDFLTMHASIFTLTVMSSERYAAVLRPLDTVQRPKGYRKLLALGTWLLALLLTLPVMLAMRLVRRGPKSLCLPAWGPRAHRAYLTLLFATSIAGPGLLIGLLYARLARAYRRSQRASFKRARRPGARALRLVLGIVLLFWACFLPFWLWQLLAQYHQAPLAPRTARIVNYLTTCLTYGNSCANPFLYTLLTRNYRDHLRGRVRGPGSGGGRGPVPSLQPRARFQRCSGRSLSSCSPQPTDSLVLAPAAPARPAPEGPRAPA
The experiment can be described thus: Radioligand binding assay ([125I] h-U-II). Particulars: HEK-293 cell membranes, 200 pM [125I] h-U-II. Here is the method: HEK-293 cell membranes containing stable cloned human and rat GPR-14 (20 ug/assay) were incubated with 200 pM [125I] h-U-II (200 Ci/mmol^−1 in the presence of increasing concentrations of test compounds in DMSO (0.1 nM to 10 uM), in a final incubation volume of 200 ul (20 mM Tris-HCl, 5 mM MgCl2). Incubation was done for 30 minutes at room temperature followed by filtration GF/B filters with Brandel cell harvester. ^125I labeled U-II binding was quantitated by gamma counting. Nonspecific binding was defined by ^125I U-II binding in the presence of 100 nM of unlabeled human U-II. Analysis of the data was performed by nonlinear least square fitting.

Each structure is given as a SMILES string.

As usually defined, the Ki is a measure of affinity in units of concentration, obtained from inhibition or displacement. Low values mean higher affinity, high ones lower affinity. Compound `CCCSc1ncc(S(=O)(=O)Nc2ccc(Cl)c(OCCN(C)C)c2)c(OC)n1` [Example 1, 4-methoxy-2-propylsulfanyl-pyrimidine-5-sulfonic Acid [4-chloro-3-(2-dimethylamino-ethoxy)-phenyl]-amide] had an inhibitory constant (Ki) of 220 nM.

The values above are taken from patent US20040152895A1, “Sulfonamides” (priority 2003, published 2004).
